Experimental data reported in US11590117B2, “Treatment of a hematologic malignancy with 2-(4-chlorophenyl)-n-((2-(2,6-dioxopiperidin-3-yl)-1-oxoisoindolin-5-yl)methyl)-2,2-difluoroacetamide” (priority 2016, dated 2023).
pIC50: −log10 of the molar value.

How the values were obtained:
Daudi = assay: CellTiter-Glo (CTG) cell proliferation assay, 72 hours; assay type: cell-based; conditions: Homo sapiens, Burkitt Lymphoma
Protocol: (§1) Preparation of Solutions of Test Article: Compounds were plated into black 384-well plates (Corning Inc.) to a final DMSO volume of 0.1% assuming a maximal volume of 50 μL. A 10-point dose response starting at 10 μM with a 1:3 dilution was printed in duplicate by acoustic dispense using the EDC ATS-100 platform.
(§2) Cell Proliferation Assays: The effect of Compound 1 on the proliferation/viability of the hematological cell lines (Table 1 Table, Table 2 and Table 3), THLE-2, or PBMCs was assessed after 72 hours incubation using CTG (Promega), according to manufacturer's instructions. Hematological cell lines were dispensed into compound plates by a Multidrop™ Combi Reagent Dispenser (Thermo Scientific, Waltham, Mass.) at a concentration of 0.1 to 0.3×10^6 cells per mL in a 50 μL total volume. THLE-2 cells were seeded out at 1000 cells per well in 50 μL volume and incubated for 72 hours. At 72 hours, 25 μL per well of CTG was dispensed by a Multidrop™ Combi Reagent Dispenser and adenosine triphosphate (ATP) release by viable cells was measured as relative luminescence units after 30 minutes using the Envision platform.

HS-Sultan = assay: as above; assay type: cell-based; conditions: Homo sapiens, Burkitt Lymphoma
Protocol: as §1, §2

Karpas 299 = assay: as above; assay type: cell-based; conditions: Homo sapiens, Anaplastic Large Cell Lymphoma
Protocol: as §1, §2

U2932 = assay: as above; assay type: cell-based; conditions: Homo sapiens, Diffuse Large B-cell Lymphoma (activated B-cell like)
Protocol: as §1, §2

Ramos = assay: as above; assay type: cell-based; conditions: Homo sapiens, Burkitt Lymphoma
Protocol: as §1, §2

BL-41 = assay: as above; assay type: cell-based; conditions: Homo sapiens, Burkitt Lymphoma
Protocol: as §1, §2

Raji = assay: as above; assay type: cell-based; conditions: Homo sapiens, Burkitt Lymphoma
Protocol: as §1, §2

MC-116 = assay: as above; assay type: cell-based; conditions: Homo sapiens, MC116, Acute Lymphoblastic Leukemia
Protocol: as §1, §2

DG-75 = assay: as above; assay type: cell-based; conditions: Homo sapiens, Burkitt Lymphoma
Protocol: as §1, §2

Namalwa = assay: as above; assay type: cell-based; conditions: Homo sapiens, Burkitt Lymphoma
Protocol: as §1, §2

BL-70 = assay: as above; assay type: cell-based; conditions: Homo sapiens, Burkitt Lymphoma
Protocol: as §1, §2

SR = assay: as above; assay type: cell-based; conditions: Homo sapiens, Acute Lymphoblastic Leukemia
Protocol: as §1, §2

RC-K8 = assay: as above; assay type: cell-based; conditions: Homo sapiens, RCK8, Diffuse Large B-cell Lymphoma (activated B-cell like)
Protocol: as §1, §2

Blue-1 = assay: as above; assay type: cell-based; conditions: Homo sapiens, Burkitt Lymphoma
Protocol: as §1, §2

OCI-LY-10 = assay: as above; assay type: cell-based; conditions: Homo sapiens, OCI-Ly10, Diffuse Large B-cell Lymphoma (activated B-cell like)
Protocol: as §1, §2

[1] = system: HR-MDS, sAML and normal bone marrow progenitors; assay: SL/M2 stromal co-culture colony forming assay (cell survival assay); assay type: cell-based, human
Protocol: Methods. Mouse stromal cells SL/M2 stably expressing human interleukin-3 (IL-3), granulocyte colony stimulating factor (G-CSF) and stem cell factor (SCF) were cultured to confluency, followed by gamma-irradiation. Human CD34+ bone marrow cells isolated from 3 high-risk MDS patients (HR-MDS), 3 secondary AML patients arising from MDS (sAML) and 5 age-matched healthy donors were then cultured with inactivated SL/M2 cells for a week. Next, human progenitor cells were quantified by FACS and cells were plated in methylcellulose for colony forming assay (cell survival assay). After two weeks, 20-25 colonies were picked from each condition, resuspended and replated in fresh methylcellulose for 2nd round of colony forming assay (cell self-renewal assay).

HL-60 human AML cells = assay: HL-60 IV AML xenograft model, bone marrow histology; assay type: in vivo, SCID mice
Protocol: In this study, different Compound 1 dosing schedules (5 mg/kg, BID×5 consecutive days versus 2.5 mg/kg, BID×10 consecutive days) were studied while maintaining the total amount of drug administered constant. Vehicle control animals were treated with 5% N-methyl-2-pyrrolidone (NMP)/45% PEG 400/50% saline. Treatment was initiated 6 weeks post inoculation. Vehicle and Compound 1 treatment groups were terminated either on Day 7 (following 5 consecutive days of 5 mg/kg twice a day [BID] Compound 1) or on Day 11 (following 10 consecutive days of 2.5 mg/kg BID Compound 1) post treatment initiation. The primary endpoint for the study was percentage of hCD33+/CD45+ cells in the BM by FACS analysis. Additional endpoints included cell viability, body weight, and BM histology.
The alternate femur of vehicle and Compound 1-treated animals was fixed in formalin, embedded in paraffin and processed for hematoxylin and eosin staining. A single tissue section/animal was used for histological analysis and the percent of tumor in viable bone marrow was estimated based on the area occupied by tumor cells. There was a significant 35% reduction (p<0.006 relative to the vehicle control) in the percentage of viable tumor in the bone marrow with Compound 1 (5 mg/kg) BID×5 treatment. […]

[2] = system: Bone marrow mononuclear cells (BMMCs) from high risk MDS patients; assay: MDS liquid culture, viable cell counting; assay type: cell-based, human; conditions: 24 hours exposure, 37, 111, 333 and 1000 nM, dose dependent, maintained at least a week
Protocol: Methods. The effect of Compound 1 on high risk MDS samples was measured in an in vitro liquid culture as well as by colony assays in order to better define its effect on stem/progenitor cells. Bone marrow mononuclear cells (BMMCs) from high risk MDS patients were cultured in vitro in CellGro medium (GellGenix) supplemented with hLDL (40 μg/mL), SCF (50 ng/mL), FLT3 […] (50 ng/mL), IL-3 (10 ng/mL), IL-6 (25 ng/mL) and TPO (100 ng/mL), all from Peprotech. During culture, cells were exposed to different concentrations of Compound 1 (37, 111, 333 and 1000 nM) or DMSO control. After 24 hours, cells were washed twice to remove compound and maintained in culture up to one week, performing viable cell counting on days 1, 3 and 7. Just after compound washout, […] per condition were collected for colony forming assays and another […] were stained for intracellular flow cytometry.

`O=C1CCC(N2Cc3cc(CNC(=O)C(F)(F)c4ccc(Cl)cc4)ccc3C2=O)C(=O)N1` (stereo not shown) [Compound 1, 2-(4-chlorophenyl)-N-((2-(2,6-dioxopiperidin-3-yl)-1-oxoisoindolin-5-yl)methyl)-2,2-difluoroacetamide] was tested, and the pIC50 (Daudi) was 6.41, the pIC50 (HS-Sultan) was < 5.00 and the pIC50 (Karpas 299) was < 5.00. For the same molecule, the pIC50 (U2932) was 6.04, the pIC50 (Ramos) was < 5.00 and the pIC50 (BL-41) was < 5.00. For the same molecule, the pIC50 (Raji) was < 5.00, the pIC50 (MC-116) was < 5.00 and the pIC50 (DG-75) was < 5.00. The pIC50 (Namalwa) was 7.13, the pIC50 (BL-70) was 6.46 and the pIC50 (SR) was < 5.00. The pIC50 (RC-K8) was 6.02, the pIC50 (Blue-1) was 6.01 and the pIC50 (OCI-LY-10) was < 5.00. For the same molecule, the “colony formation (cell survival)” value [1] was “significant cytotoxicity”, the “reduction in percentage of viable tumor in the bone marrow (histology)” value (HL-60 human AML cells; 2.5 mg/kg BID×10, relative to vehicle control, not statistically significant) was 23.5% and the “reduction in percentage of viable tumor in the bone marrow (histology)” value (HL-60 human AML cells; 5 mg/kg BID×5, p<0.006 relative to vehicle control) was 35%. For the same molecule, the “number of viable cells” value [2] was “significantly reduced”.
